Experimental data: ChEMBL document CHEMBL3414511, “Synthesis of a novel class of substituted benzothiophene or benzofuran derivatives as BMP-2 up-regulators and evaluation of the BMP-2-up-regulating effects in vitro and the effects on glucocorticoid-induced osteoporosis in rats” (Eur J Med Chem, 2015)
Active and inactive are the calls of the source. The rule behind the calls is not given here.

How the values were obtained:
[1] = Upregulation of BMP-2 expression in mouse MC3T3-E1 cells at 4 uM after 24 hrs by luciferase reporter gene assay relative to control; format: functional, cell-based
Rattus norvegicus [2] = assay: Toxicity in glucocorticoid-induced Wistar rat osteoporosis model assessed as white blood cells at 30 mg/kg/day, po administered six times a week for 3 months (reference value: 6.28 +/- 2.78 x 10^9/L); format: organism-based; set-up: route oral; settings: in vivo
Rattus norvegicus [3] = assay: Toxicity in glucocorticoid-induced Wistar rat osteoporosis model assessed as lymph level at 30 mg/kg/day, po administered six times a week for 3 months (reference value: 50.35 +/- 12.96%); format: organism-based; set-up: route oral; settings: in vivo
Rattus norvegicus [4] = assay: Toxicity in glucocorticoid-induced Wistar rat osteoporosis model assessed as neutrophilic granulocytes level at 30 mg/kg/day, po administered six times a week for 3 months (reference value: 31.95 +/- 8.33%); format: organism-based; set-up: route oral; settings: in vivo
Rattus norvegicus [5] = assay: Toxicity in glucocorticoid-induced Wistar rat osteoporosis model assessed as effect on red blood cells at 30 mg/kg/day, po administered six times a week for 3 months; format: organism-based; set-up: route oral; settings: in vivo
Rattus norvegicus [6] = assay: Toxicity in glucocorticoid-induced Wistar rat osteoporosis model assessed as effect on hemoglobin at 30 mg/kg/day, po administered six times a week for 3 months; format: organism-based; set-up: route oral; settings: in vivo
Rattus norvegicus [7] = assay: Toxicity in glucocorticoid-induced Wistar rat osteoporosis model assessed as effect on red blood cell specific volume at 30 mg/kg/day, po administered six times a week for 3 months; format: organism-based; set-up: route oral; settings: in vivo
Rattus norvegicus [8] = assay: Toxicity in glucocorticoid-induced Wistar rat osteoporosis model assessed as effect on mean corpuscular volume at 30 mg/kg/day, po administered six times a week for 3 months; format: organism-based; set-up: route oral; settings: in vivo
Rattus norvegicus [9] = assay: Toxicity in glucocorticoid-induced Wistar rat osteoporosis model assessed as effect on mean corpuscular hemoglobin concentration at 30 mg/kg/day, po administered six times a week for 3 months; format: organism-based; set-up: route oral; settings: in vivo
Rattus norvegicus [10] = assay: Toxicity in glucocorticoid-induced Wistar rat osteoporosis model assessed as effect on red blood cell distribution width at 30 mg/kg/day, po administered six times a week for 3 months; format: organism-based; set-up: route oral; settings: in vivo
Rattus norvegicus [11] = assay: Toxicity in glucocorticoid-induced Wistar rat osteoporosis model assessed as effect on platelets at 30 mg/kg/day, po administered six times a week for 3 months; format: organism-based; set-up: route oral; settings: in vivo
Rattus norvegicus [12] = assay: Toxicity in glucocorticoid-induced Wistar rat osteoporosis model assessed as aspartate transaminase level at 30 mg/kg/day, po administered six times a week for 3 months (reference value: 177.55 +/- 116.98 U/L); format: organism-based; set-up: route oral; settings: in vivo
Rattus norvegicus [13] = assay: Toxicity in glucocorticoid-induced Wistar rat osteoporosis model assessed as alanine transaminase level at 30 mg/kg/day, po administered six times a week for 3 months (reference value: 43.73 +/- 36.21 U/L); format: organism-based; set-up: route oral; settings: in vivo
Rattus norvegicus [14] = assay: Toxicity in glucocorticoid-induced Wistar rat osteoporosis model assessed as triglycerides level at 30 mg/kg/day, po administered six times a week for 3 months (reference value: 1.13 +/- 0.69 mmol/L); format: organism-based; set-up: route oral; settings: in vivo
Rattus norvegicus [15] = assay: Toxicity in glucocorticoid-induced Wistar rat osteoporosis model assessed as effect on total bilirubin level at 30 mg/kg/day, po administered six times a week for 3 months; format: organism-based; set-up: route oral; settings: in vivo
Rattus norvegicus [16] = assay: Toxicity in glucocorticoid-induced Wistar rat osteoporosis model assessed as effect on total protein level at 30 mg/kg/day, po administered six times a week for 3 months; format: organism-based; set-up: route oral; settings: in vivo
Rattus norvegicus [17] = assay: Toxicity in glucocorticoid-induced Wistar rat osteoporosis model assessed as effect on albumin level at 30 mg/kg/day, po administered six times a week for 3 months; format: organism-based; set-up: route oral; settings: in vivo
Rattus norvegicus [18] = assay: Toxicity in glucocorticoid-induced Wistar rat osteoporosis model assessed as effect on blood urea nitrogen level at 30 mg/kg/day, po administered six times a week for 3 months; format: organism-based; set-up: route oral; settings: in vivo
Rattus norvegicus [19] = assay: Toxicity in glucocorticoid-induced Wistar rat osteoporosis model assessed as effect on creatinine level at 30 mg/kg/day, po administered six times a week for 3 months; format: organism-based; set-up: route oral; settings: in vivo
Rattus norvegicus [20] = assay: Toxicity in glucocorticoid-induced Wistar rat osteoporosis model assessed as effect on glucose level at 30 mg/kg/day, po administered six times a week for 3 months; format: organism-based; set-up: route oral; settings: in vivo
[21] = Acute toxicity in po dosed Kunming mouse administered for 3 days measured during compound dosing and following 14 days; format: organism-based; settings: in vivo
Rattus norvegicus [22] = assay: Antiosteoporotic activity in glucocorticoid-induced Wistar rat osteoporosis model assessed as increase in trabecula number at 30 mg/kg/day, po administered six times a week for 3 months by toluidine blue staining-based light microscopic analysis relative to dexamethasone; format: functional, organism-based
Rattus norvegicus [23] = assay: Antiosteoporotic activity in glucocorticoid-induced Wistar rat osteoporosis model assessed as increase in trabecula thickness at 30 mg/kg/day, po administered six times a week for 3 months by toluidine blue staining-based light microscopic analysis relative to dexamethasone; format: functional, organism-based
Rattus norvegicus [24] = assay: Antiosteoporotic activity in glucocorticoid-induced Wistar rat osteoporosis model assessed as increase in trabecula area at 30 mg/kg/day, po administered six times a week for 3 months by toluidine blue staining-based light microscopic analysis relative to dexamethasone; format: functional, organism-based
Rattus norvegicus [25] = assay: Antiosteoporotic activity in glucocorticoid-induced Wistar rat osteoporosis model assessed as increase in trabecula connectivity at 30 mg/kg/day, po administered six times a week for 3 months by toluidine blue staining-based light microscopic analysis relative to dexamethasone; format: functional, organism-based
Rattus norvegicus [26] = assay: Antiosteoporotic activity in glucocorticoid-induced Wistar rat osteoporosis model assessed as trabecular bone volume at 30 mg/kg/day, po administered six times a week for 3 months by fluorescence assay (reference value: 33.09 +/- 5.15%); format: functional, Trabecula
Rattus norvegicus [27] = assay: Antiosteoporotic activity in glucocorticoid-induced Wistar rat osteoporosis model assessed as trabecula formation surface at 30 mg/kg/day, po administered six times a week for 3 months by fluorescence assay (reference value: 7.82 +/- 2.46%); format: functional
Rattus norvegicus [28] = assay: Antiosteoporotic activity in glucocorticoid-induced Wistar rat osteoporosis model assessed as trabecula resorption surface at 30 mg/kg/day, po administered six times a week for 3 months by fluorescence assay (reference value: 7.22 +/- 2.04%); format: functional
Rattus norvegicus [29] = assay: Antiosteoporotic activity in glucocorticoid-induced Wistar rat osteoporosis model assessed as mineral apposition rate at 30 mg/kg/day, po administered six times a week for 3 months by fluorescence assay (reference value: 1.06 +/- 0.27 micrometer/day); format: functional
Mus musculus [30] = assay: Acute toxicity in Kunming mouse assessed as behavioral changes at 500 mg/kg, po administered for 3 days measured during compound dosing and following 14 days; format: organism-based; set-up: dose 500 mg/kg, route oral; settings: in vivo, 336 h
Mus musculus [31] = assay: Acute toxicity in Kunming mouse assessed as shiny fur at 500 mg/kg, po administered for 3 days measured during compound dosing and following 14 days; format: organism-based; set-up: dose 500 mg/kg, route oral; settings: in vivo, 336 h

## CCOC(=O)c1cc2c(OC)cccc2o1
[1]
  Activity: 60%

## COc1ccc2oc(C(=O)CS(C)(=O)=O)cc2c1
[1]
  Activity: 12.9%

## CCOC(=O)c1cc2ccc(OC)cc2o1
Rattus norvegicus [2]
  Activity: 2.83 ×10⁹ /L
Rattus norvegicus [3]
  Activity: 46.18%
Rattus norvegicus [4]
  Activity: 38.96%
Rattus norvegicus [5]
  Activity: Non-toxic
Rattus norvegicus [6]
  Activity: Non-toxic
Rattus norvegicus [7]
  Activity: Non-toxic
Rattus norvegicus [8]
  Activity: Non-toxic
Rattus norvegicus [9]
  Activity: Non-toxic
Rattus norvegicus [10]
  Activity: Non-toxic
Rattus norvegicus [11]
  Activity: Non-toxic
[1]
  Activity: 89.4%
Rattus norvegicus [12]
  Activity: 110.08 U/L
Rattus norvegicus [13]
  Activity: 27.67 U/L
Rattus norvegicus [14]
  Activity: 0.38 mmol/L
Rattus norvegicus [15]
  Activity: Non-toxic
Rattus norvegicus [16]
  Activity: Non-toxic
Rattus norvegicus [17]
  Activity: Non-toxic
Rattus norvegicus [18]
  Activity: Non-toxic
Rattus norvegicus [19]
  Activity: Non-toxic
Rattus norvegicus [20]
  Activity: Non-toxic
[21]
  LD50 at 336 h: > 500 mg/kg
Rattus norvegicus [22]
  Activity: Active
Rattus norvegicus [23]
  Activity: Active
Rattus norvegicus [24]
  Activity: Active
Rattus norvegicus [25]
  Activity: Active
Rattus norvegicus [26]
  Activity: 30.8%
Rattus norvegicus [27]
  Activity: 7.13%
Rattus norvegicus [28]
  Activity: 8.23%
Rattus norvegicus [29]
  Activity: 1.29 micrometer/day
Mus musculus [30]
  Activity: Non-toxic
Mus musculus [31]
  Activity: Non-toxic

## CCOC(=O)c1cc2cc(OC)ccc2o1
[1]
  Activity: 64.1%

## COc1ccc2oc(C(O)C[S+](C)[O-])cc2c1 (stereo unspecified)
[1]
  Activity: 16.9%

## CCOC(=O)c1ccc2cc(C(=O)/C=C/c3ccccc3Cl)sc2c1
[1]
  Activity: 39.1%

## CCOC(=O)c1cc2ccc(N(CC)CC)cc2o1
[1]
  Activity: 44.6%

## COc1ccc2oc(C(=O)C[S+](C)[O-])cc2c1 (stereo unspecified)
[1]
  Activity: 2.1%

## CCOC(=O)c1ccc2cc(C(=O)/C=C/c3ccc(OC)cc3)sc2c1
[1]
  Activity: 12.2%

## COC(=O)c1ccc2sc(C(C)O)cc2c1 (stereo unspecified)
[1]
  Activity: 56.9%

## COc1ccc2cc(C(=O)C[S+](C)[O-])oc2c1 (stereo unspecified)
[1]
  Activity: 7.7%

## C[S+]([O-])CC(O)c1cc2cc3c(cc2s1)OCO3 (stereo unspecified)
[1]
  Activity: -9.3%

## CCN(CC)c1ccc2cc(C(=O)C[S+](C)[O-])oc2c1 (stereo unspecified)
[1]
  Activity: 10%

## COc1cccc2oc(C(=O)C[S+](C)[O-])cc12 (stereo unspecified)
[1]
  Activity: 19.6%

## CC(=O)c1cc2ccccc2s1
Rattus norvegicus [2]
  Activity: 3.12 ×10⁹ /L
Rattus norvegicus [3]
  Activity: 39.85%
Rattus norvegicus [4]
  Activity: 43.25%
Rattus norvegicus [5]
  Activity: Non-toxic
Rattus norvegicus [6]
  Activity: Non-toxic
Rattus norvegicus [7]
  Activity: Non-toxic
Rattus norvegicus [8]
  Activity: Non-toxic
Rattus norvegicus [9]
  Activity: Non-toxic
Rattus norvegicus [10]
  Activity: Non-toxic
Rattus norvegicus [11]
  Activity: Non-toxic
Rattus norvegicus [12]
  Activity: 129.83 U/L
Rattus norvegicus [13]
  Activity: 35.25 U/L
Rattus norvegicus [14]
  Activity: 0.46 mmol/L
Rattus norvegicus [15]
  Activity: Non-toxic
Rattus norvegicus [16]
  Activity: Non-toxic
Rattus norvegicus [17]
  Activity: Non-toxic
Rattus norvegicus [18]
  Activity: Non-toxic
Rattus norvegicus [19]
  Activity: Non-toxic
Rattus norvegicus [20]
  Activity: Non-toxic
Rattus norvegicus [22]
  Activity: Active
Rattus norvegicus [23]
  Activity: Active
Rattus norvegicus [24]
  Activity: Active
Rattus norvegicus [25]
  Activity: Active
Rattus norvegicus [26]
  Activity: 31.57%
Rattus norvegicus [27]
  Activity: 7.36%
Rattus norvegicus [28]
  Activity: 8.36%
Rattus norvegicus [29]
  Activity: 1.24 micrometer/day

## CCOC(=O)c1ccc2cc(C(=O)/C=C/c3ccc(OC)c(OC)c3)sc2c1
[1]
  Activity: 0.7%

## C[S+]([O-])CC(O)c1cc2ccccc2s1 (stereo unspecified)
[1]
  Activity: -3.6%

## COC(=O)c1ccc2cc(C(C)O)sc2c1 (stereo unspecified)
[1]
  Activity: 81.4%

## CCOC(=O)c1ccc2cc(C(=O)/C=C/c3ccc(OC)c(OC)c3OC)sc2c1
[1]
  Activity: -13%

## CCOC(=O)c1ccc2cc(C(=O)/C=C/c3ccccc3)sc2c1
Rattus norvegicus [2]
  Activity: 2.83 ×10⁹ /L
Rattus norvegicus [3]
  Activity: 43.43%
Rattus norvegicus [4]
  Activity: 41.98%
Rattus norvegicus [5]
  Activity: Non-toxic
Rattus norvegicus [6]
  Activity: Non-toxic
Rattus norvegicus [7]
  Activity: Non-toxic
Rattus norvegicus [8]
  Activity: Non-toxic
Rattus norvegicus [9]
  Activity: Non-toxic
Rattus norvegicus [10]
  Activity: Non-toxic
Rattus norvegicus [11]
  Activity: Non-toxic
[1]
  Activity: 85.9%
Rattus norvegicus [12]
  Activity: 103.08 U/L
Rattus norvegicus [13]
  Activity: 27 U/L
Rattus norvegicus [14]
  Activity: 0.29 mmol/L
Rattus norvegicus [15]
  Activity: Non-toxic
Rattus norvegicus [16]
  Activity: Non-toxic
Rattus norvegicus [17]
  Activity: Non-toxic
Rattus norvegicus [18]
  Activity: Non-toxic
Rattus norvegicus [19]
  Activity: Non-toxic
Rattus norvegicus [20]
  Activity: Non-toxic
[21]
  LD50 at 336 h: > 500 mg/kg
Rattus norvegicus [22]
  Activity: Active
Rattus norvegicus [23]
  Activity: Active
Rattus norvegicus [24]
  Activity: Active
Rattus norvegicus [25]
  Activity: Active
Rattus norvegicus [26]
  Activity: 25.2%
Rattus norvegicus [27]
  Activity: 6.98%
Rattus norvegicus [28]
  Activity: 8.58%
Rattus norvegicus [29]
  Activity: 1.26 micrometer/day
Mus musculus [30]
  Activity: Non-toxic
Mus musculus [31]
  Activity: Non-toxic
